Results published in article PMC10363080, “Modulatory Effect of Pyrus pyrifolia Fruit and its Phenolics on Key Enzymes against Metabolic Syndrome: Bioassay-Guided Approach, HPLC Analysis, and In Silico Study” (Plant Foods for Human Nutrition (Dordrecht, Netherlands), 2023).

How the values were obtained:
pancreatic α-amylase = target: T1, pancreatic α-amylase (Sus scrofa, UniProt P00690); assay: α-Amylase inhibitory activity (starch substrate); format: biochemical, porcine; settings: isolated compounds, Table S7; read-out: Inhibition (IC50) α-Amylase
T1 construct: pancreatic α-amylase (ex -porcine pancreas, EC 3.2.1.1, Sigma); purchased Sigma; host or cells: porcine pancreas
T1 sequence (P00690 16-511): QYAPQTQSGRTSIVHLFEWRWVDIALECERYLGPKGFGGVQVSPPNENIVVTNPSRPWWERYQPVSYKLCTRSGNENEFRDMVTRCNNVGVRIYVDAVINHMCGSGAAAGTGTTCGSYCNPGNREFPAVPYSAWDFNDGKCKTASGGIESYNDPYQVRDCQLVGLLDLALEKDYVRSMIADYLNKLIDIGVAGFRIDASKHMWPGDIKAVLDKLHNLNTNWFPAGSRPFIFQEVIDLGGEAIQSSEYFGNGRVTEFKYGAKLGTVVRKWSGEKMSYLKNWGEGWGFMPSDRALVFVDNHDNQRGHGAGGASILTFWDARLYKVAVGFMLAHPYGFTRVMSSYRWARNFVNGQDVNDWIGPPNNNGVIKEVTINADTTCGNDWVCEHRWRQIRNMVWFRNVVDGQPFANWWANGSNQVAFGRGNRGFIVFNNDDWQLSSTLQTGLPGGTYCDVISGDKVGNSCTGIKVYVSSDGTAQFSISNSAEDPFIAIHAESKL
Procedure: (§1) Phenolic acids and flavonoids used in HPLC analysis as well as all other reagents for biological investigations were obtained from Sigma Chemical Company […]
(§2) Inhibitory activity against key enzymes related to metabolic syndrome (MS) All assays were performed in 96-well plates. Stock solutions of the extract (100 mg/mL), fractions (100 mg/mL), and isolated compounds (1000 µM) were prepared. Tested samples that exceeded […]
(§3) inhibitory concentration (IC50). The percentage of enzyme inhibition was calculated according to […]
(§4) % Inhibition = (A−B) − (C−D) x 100 […]
α-Amylase inhibitory activity
α-Amylase inhibition assays were performed according to a previously described method. The tested samples we re incubated with pancreatic α-amylase (ex -porcine pancreas, EC 3.2.1.1, Sigma) followed by the addition of starch and iodine -potassium iodide solution for colo r development.
Starch [50 μL, 1% phosphate-buffered saline (PBS)] was mixed as substrate with 13 U mL−1 pancreatic α-amylase prepared in PBS, and 50 μL of test solution. A blank was performed using PBS. To initiate the reaction, the enzyme was added to the assay solution after being pre-incubated separately at 37 °C in a water bath for 10 min. Dinitrosalicylic acid reagent (1 mL) was added and […]
heated at 85 °C for 15 min. Then, it was cooled to room temperature and distilled water (1 mL) […]
was added. […] The absorbance was recorded at 540 nm.
Pancreatic lipase inhibitory activity […]

[1] = target: T2, inducible nitric oxide synthase (iNOS) (Mus musculus, UniProt P29477); assay: iNOS inhibitory activity in LPS-induced RAW264.7 macrophages (nitrite, Griess reagent); format: cell-based; settings: isolated compounds, Table S7, RAW264.7 cells, read-out: Inhibition (IC50) iNOS (converted)
T2 construct: endogenous in cells; host or cells: RAW264.7 mouse macrophages, LPS-induced
T2 sequence (P29477 1-1144): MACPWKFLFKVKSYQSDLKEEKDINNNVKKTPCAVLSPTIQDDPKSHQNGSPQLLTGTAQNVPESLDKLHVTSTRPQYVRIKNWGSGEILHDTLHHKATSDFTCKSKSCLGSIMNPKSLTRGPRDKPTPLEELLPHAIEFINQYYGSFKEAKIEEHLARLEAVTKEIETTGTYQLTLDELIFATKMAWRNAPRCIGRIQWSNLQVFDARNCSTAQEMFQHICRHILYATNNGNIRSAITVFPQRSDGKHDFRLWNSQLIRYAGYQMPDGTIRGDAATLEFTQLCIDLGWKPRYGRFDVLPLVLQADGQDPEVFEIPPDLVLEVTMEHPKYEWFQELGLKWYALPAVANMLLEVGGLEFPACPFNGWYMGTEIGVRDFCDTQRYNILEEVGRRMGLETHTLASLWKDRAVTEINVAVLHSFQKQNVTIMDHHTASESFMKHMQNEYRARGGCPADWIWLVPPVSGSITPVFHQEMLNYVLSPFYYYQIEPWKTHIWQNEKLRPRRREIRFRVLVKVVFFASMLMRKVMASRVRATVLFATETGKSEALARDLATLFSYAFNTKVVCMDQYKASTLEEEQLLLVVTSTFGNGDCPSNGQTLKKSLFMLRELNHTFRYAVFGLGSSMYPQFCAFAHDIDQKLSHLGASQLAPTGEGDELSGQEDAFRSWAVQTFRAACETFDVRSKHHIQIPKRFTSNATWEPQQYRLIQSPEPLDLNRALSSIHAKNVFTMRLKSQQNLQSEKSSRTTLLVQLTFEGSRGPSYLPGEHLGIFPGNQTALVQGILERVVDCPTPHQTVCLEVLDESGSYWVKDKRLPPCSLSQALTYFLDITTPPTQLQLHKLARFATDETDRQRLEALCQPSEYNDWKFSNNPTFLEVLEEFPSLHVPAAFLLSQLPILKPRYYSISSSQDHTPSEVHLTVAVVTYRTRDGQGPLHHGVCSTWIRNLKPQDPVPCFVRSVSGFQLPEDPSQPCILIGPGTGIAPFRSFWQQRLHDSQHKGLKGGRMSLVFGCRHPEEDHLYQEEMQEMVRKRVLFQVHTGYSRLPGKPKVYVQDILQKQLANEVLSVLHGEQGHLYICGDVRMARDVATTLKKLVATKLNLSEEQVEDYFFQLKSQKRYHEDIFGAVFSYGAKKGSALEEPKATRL
Procedure: as §1, §2, §3, §4
Inducible nitric oxide synthase (iNOS) inhibitory activity iNOS inhibitory activity was determined in mouse macrophage cells (RAW264.7, Shanghai BOGO Industrial Co., Ltd., China) according to a previously designed method. Phenol red-free RPMI medium from Thermo-Fisher was used to develop macrophages. It was supplemented with 10% bovine calf serum, 100 U/mL of penicillin G sodium from Sigma-Aldrich, and 100 µg/mL of streptomycin (Sigma-Aldrich). Cells (50,000/well) were seeded onto 96-well plates, which were […]

[2] = Ferric reducing antioxidant power (FRAP) assay; design: FRAP AA (%) antioxidant activity percentage: concentration or dose not given beside the values; settings: for FRAP antioxidant activity: Trolox equivalent per gram of sample, mean ± SD, n=3; for FRAP AA (%) antioxidant activity percentage: compared to ascorbic acid (=100)
Procedure: all of analytical grade. An electrothermal 9100 (UK) was used for the determination of melting points (uncorrected). A Jenway model 6800 spectrophotometer was utilized for recording UV spectra. A Tecan, microplate reader, ((Infinite F50, Switzerland)) was used to measure the absorbances. A Bruker NMR system was used for 1H-NMR (400 MHz) and 13C-NMR (100 MHz).
The NMR spectra were determined in CD3OH and DMSO-d6. Chemical shifts are given in δ (ppm) relative to the internal standard TMS. Phenolic acids and flavonoids used in HPLC analysis as well as all other reagents for biological investigations were obtained from Sigma Chemical Company […]
Determination of the antioxidant activity
2,2`-Azino-bis(3-ethylbenzothiazoline-6-sulfonic acid) (ABTS), ferric reducing antioxidant power (FRAP), and oxygen radical absorbance capacity (ORAC) assays were performed according to the previously published procedures. Ascorbic acid was used as a reference antioxidant […]
drug. […]

Compound	IC50 (pancreatic α-amylase)	IC50 [1]	FRAP antioxidant activity [2]	FRAP AA (%) antioxidant activity percentage [2]	FRAP antioxidant activity ([2]; listed as Cinnamic acid (P6))
C[C@@H]1O[C@@H](OC[C@H]2O[C@@H](Oc3c(-c4ccc(O)c(O)c4)oc4cc(O)cc(O)c4c3=O)[C@H](O)[C@@H](O)[C@@H]2O)[C@H](O)[C@H](O)[C@H]1O [P1, rutin]	3.54 ± 0.21 µM	4.99 ± 1.94 µM	99.28 ±0.98 μM TE/g	63.96%	–
O=c1c(O[C@@H]2O[C@H](CO)[C@@H](O)[C@H](O)[C@H]2O)c(-c2ccc(O)c(O)c2)oc2cc(O)cc(O)c12 [P2, isoquercitrin]	1.54 ± 0.18 µM	4.8 ± 0.99 µM	137.27±0.53 μM TE/g	88.44%	–
COc1cc(-c2oc3cc(O)cc(O)c3c(=O)c2O[C@@H]2O[C@H](CO)[C@@H](O)[C@H](O)[C@H]2O)ccc1O [P3, isorhamnetin-3-O-β-D-glucopyranoside]	2.31 ± 0.87 µM	4.89 ± 0.78 µM	125.08±0.72 μM TE/g	80.58%	–
O=C(/C=C/c1ccc(O)c(O)c1)O[C@@H]1C[C@](O)(C(=O)O)C[C@@H](O)[C@H]1O [P4, chlorogenic acid]	3.78 ± 0.19 µM	4.79 ± 0.89 µM	–	–	–
O=C(O)/C=C/c1ccccc1 [P6, cinnamic acid]	1.02 ± 0.63 µM	4.76 ± 0.25 µM	141.26±0.91 μM TE/g	91.01%	141.26 ± 0.91 μM TE/g
